Experimental data from US11331327B2, “Antibacterial use of halogenated salicylanilides” (UNION therapeutics A/S, priority 2014, dated 2022).
Values after ≈ are worked out from the molar mass of the structure shown.

System: S. aureus clinical isolates and S. aureus ATCC 29213
Test: MIC assay according to CLSI criteria, Example 2, S. aureus strains
Format: cell-based, Staphylococcus aureus
Conditions: Staphylococcus aureus
Procedure, shortened: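 Wells received roughly 5×10^5 S. aureus cells taken in exponential growth, in cation-adjusted MH broth. Plates held aerobically at 37° C for 18 hours.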

C=C[C@]1(C)C[C@@H](OC(=O)CS[C@@H]2C[C@H]3CC[C@@H](C2)N3C)[C@]2(C)[C@H](C)CC[C@]3(CCC(=O)[C@H]32)[C@@H](C)[C@@H]1O [Retapamulin]
MIC (ATCC29213, strain 9-1862936): 0.03 µg/mL (≈ 0.0579 µM) | MIC (ATCC29213, strain 9-2625962): 0.03 µg/mL (≈ 0.0579 µM) | MIC (ATCC29213, strain 9-2642158): 0.06 µg/mL (≈ 0.116 µM) | MIC (ATCC29213, strain 9-2955245): 0.06 µg/mL (≈ 0.116 µM) | MIC (ATCC29213, strain 9-26422166): 0.03 µg/mL (≈ 0.0579 µM) | MIC (ATCC29213, strain 000040C): 0.03 µg/mL (≈ 0.0579 µM) | MIC (ATCC29213, strain 000041C): 0.03 µg/mL (≈ 0.0579 µM) | MIC (ATCC29213, strain 000274T): 0.06 µg/mL (≈ 0.116 µM) | MIC (ATCC29213, strain 114660U): 0.06 µg/mL (≈ 0.116 µM) | MIC (ATCC29213, strain 115015T): 0.06 µg/mL (≈ 0.116 µM) | MIC (ATCC29213, strain 115242C): 0.03 µg/mL (≈ 0.0579 µM) | MIC (ATCC29213, strain 115263C): 0.03 µg/mL (≈ 0.0579 µM) | MIC (ATCC29213, strain 115268C): 0.03 µg/mL (≈ 0.0579 µM) | MIC (ATCC29213, strain 115273C): 0.03 µg/mL (≈ 0.0579 µM) | MIC (ATCC29213, strain 115295C): 0.03 µg/mL (≈ 0.0579 µM) | MIC (ATCC29213, strain 115303C): 0.03 µg/mL (≈ 0.0579 µM) | MIC (ATCC29213, strain 115370U): 0.06 µg/mL (≈ 0.116 µM) | MIC (ATCC29213, strain 115427C): 0.03 µg/mL (≈ 0.0579 µM) | MIC (ATCC29213, strain 115445C): 0.03 µg/mL (≈ 0.0579 µM) | MIC (ATCC29213, strain 115561C): 0.03 µg/mL (≈ 0.0579 µM) | MIC (ATCC29213, strain 115584D): 0.06 µg/mL (≈ 0.116 µM) | MIC (ATCC29213, strain 115628T): 0.03 µg/mL (≈ 0.0579 µM) | MIC (ATCC29213, strain 115690C): 0.25 µg/mL (≈ 0.483 µM) | MIC (ATCC29213, strain 115691T): 0.03 µg/mL (≈ 0.0579 µM) | MIC (ATCC29213, strain 115740E): 0.06 µg/mL (≈ 0.116 µM) | MIC (ATCC29213, strain 115810E): 0.06 µg/mL (≈ 0.116 µM) | MIC (ATCC29213, strain 115903T): 0.03 µg/mL (≈ 0.0579 µM) | MIC (ATCC29213, strain 116122T): 0.03 µg/mL (≈ 0.0579 µM) | MIC (ATCC29213, strain ATCC 29213): 0.03 µg/mL (≈ 0.0579 µM) | MIC (ATCC29213, strain E5-1029252): 0.03 µg/mL (≈ 0.0579 µM) | MIC (ATCC29213, strain E5-1029558): 0.03 µg/mL (≈ 0.0579 µM) | MIC (ATCC29213, strain E5-1030440): 0.06 µg/mL (≈ 0.116 µM) | MIC (ATCC29213, strain E5-1030469): 0.03 µg/mL (≈ 0.0579 µM) | MIC (ATCC29213, strain E5-1030472): 0.06 µg/mL (≈ 0.116 µM) | MIC (ATCC29213, strain E5-1030482): 0.02 µg/mL (≈ 0.0386 µM) | MIC (ATCC29213, strain E5-1033076 (first line, r202)): 0.03 µg/mL (≈ 0.0579 µM) | MIC (ATCC29213, strain E5-1033076 (second line, r203)): 0.03 µg/mL (≈ 0.0579 µM) | MIC (ATCC29213, strain E5-1033088): 0.03 µg/mL (≈ 0.0579 µM) | MIC (ATCC29213, strain E5-1033091): 0.02 µg/mL (≈ 0.0386 µM) | MIC (ATCC29213, strain E5-1035277): 0.03 µg/mL (≈ 0.0579 µM) | MIC (ATCC29213, strain E5-1035284): 0.03 µg/mL (≈ 0.0579 µM) | MIC (ATCC29213, strain E5-1035775): 0.06 µg/mL (≈ 0.116 µM) | MIC (ATCC29213, strain E5-1035779): 0.03 µg/mL (≈ 0.0579 µM) | MIC (ATCC29213, strain E5-1037958): 0.06 µg/mL (≈ 0.116 µM) | MIC (ATCC29213, strain E5-1037971): 0.03 µg/mL (≈ 0.0579 µM) | MIC (ATCC29213, strain E5-1038279): 0.03 µg/mL (≈ 0.0579 µM) | MIC (ATCC29213, strain E5-1038286): 0.06 µg/mL (≈ 0.116 µM) | MIC (ATCC29213, strain E5-1038294): 0.03 µg/mL (≈ 0.0579 µM) | MIC (ATCC29213, strain E5-1039684): 0.06 µg/mL (≈ 0.116 µM) | MIC (ATCC29213, strain E5-1039697): 0.06 µg/mL (≈ 0.116 µM) | MIC (ATCC29213, strain E5-1041977): 0.03 µg/mL (≈ 0.0579 µM) | MIC (ATCC29213, strain E5-1041979): 0.03 µg/mL (≈ 0.0579 µM) | MIC (ATCC29213, strain E5-1041980): 0.03 µg/mL (≈ 0.0579 µM) | MIC (ATCC29213, strain E5-1041987): 0.03 µg/mL (≈ 0.0579 µM) | MIC (ATCC29213, strain E5-1043184): 0.03 µg/mL (≈ 0.0579 µM) | MIC (ATCC29213, strain E5-1043668): 0.06 µg/mL (≈ 0.116 µM) | MIC (ATCC29213, strain E5-1045179): 0.06 µg/mL (≈ 0.116 µM) | MIC (ATCC29213, strain E5-1046019): 0.03 µg/mL (≈ 0.0579 µM) | MIC (ATCC29213, strain E5-1046020): 0.06 µg/mL (≈ 0.116 µM) | MIC (ATCC29213, strain E5-1046039): 0.06 µg/mL (≈ 0.116 µM) | MIC (ATCC29213, strain E5-1046070): 0.03 µg/mL (≈ 0.0579 µM) | MIC (ATCC29213, strain E5-1046074): 0.06 µg/mL (≈ 0.116 µM) | MIC (ATCC29213, strain E5-1046085): 0.06 µg/mL (≈ 0.116 µM) | MIC (ATCC29213, strain E5-1046096): 0.06 µg/mL (≈ 0.116 µM) | MIC (ATCC29213, strain E5-1046296): 0.03 µg/mL (≈ 0.0579 µM) | MIC (ATCC29213, strain E5-1046297): 0.06 µg/mL (≈ 0.116 µM) | MIC (ATCC29213, strain E5-1046298): 0.03 µg/mL (≈ 0.0579 µM) | MIC (ATCC29213, strain E5-1046723): 0.06 µg/mL (≈ 0.116 µM) | MIC (ATCC29213, strain E5-1047585): 0.03 µg/mL (≈ 0.0579 µM) | MIC (ATCC29213, strain E5-1047606): 0.03 µg/mL (≈ 0.0579 µM) | MIC (ATCC29213, strain E5-1047924): 0.03 µg/mL (≈ 0.0579 µM) | MIC (ATCC29213, strain E5-1048204): 0.03 µg/mL (≈ 0.0579 µM) | MIC (ATCC29213, strain E5-1048428): 0.06 µg/mL (≈ 0.116 µM) | MIC (ATCC29213, strain E5-1048654): 0.06 µg/mL (≈ 0.116 µM) | MIC (ATCC29213, strain E5-1048670): 0.06 µg/mL (≈ 0.116 µM) | MIC (ATCC29213, strain EEFIC 01): 0.03 µg/mL (≈ 0.0579 µM) | MIC (ATCC29213, strain EEFIC 02): 0.03 µg/mL (≈ 0.0579 µM) | MIC (ATCC29213, strain K000772): 0.06 µg/mL (≈ 0.116 µM) | MIC (ATCC29213, strain K000796): 0.03 µg/mL (≈ 0.0579 µM) | MIC (ATCC29213, strain K000863): 0.03 µg/mL (≈ 0.0579 µM) | MIC (ATCC29213, strain K000864): 0.03 µg/mL (≈ 0.0579 µM) | MIC (ATCC29213, strain K000866): 0.03 µg/mL (≈ 0.0579 µM) | MIC (ATCC29213, strain K115498): 0.03 µg/mL (≈ 0.0579 µM) | MIC (ATCC29213, strain K115688): 0.03 µg/mL (≈ 0.0579 µM) | MIC (ATCC29213, strain K115689): 0.03 µg/mL (≈ 0.0579 µM) | MIC (ATCC29213, strain R000019): 0.06 µg/mL (≈ 0.116 µM) | MIC (ATCC29213, strain R000020): 0.03 µg/mL (≈ 0.0579 µM) | MIC (ATCC29213, strain R000024): 0.06 µg/mL (≈ 0.116 µM) | MIC (ATCC29213, strain U115579): 0.06 µg/mL (≈ 0.116 µM) | MIC (ATCC 29213 / MRSA, strain MRSA 01): 0.06 µg/mL (≈ 0.116 µM) | MIC (ATCC 29213 / MRSA, strain MRSA 02): 0.06 µg/mL (≈ 0.116 µM) | MIC (ATCC 29213 / MRSA, strain MRSA 03): 0.03 µg/mL (≈ 0.0579 µM) | MIC (ATCC 29213 / MRSA, strain MRSA 04): 0.06 µg/mL (≈ 0.116 µM) | MIC (ATCC 29213 / MRSA, strain MRSA 05): 0.03 µg/mL (≈ 0.0579 µM) | MIC (ATCC 29213 / MRSA, strain MRSA 06): 0.03 µg/mL (≈ 0.0579 µM) | MIC (ATCC 29213 / MRSA, strain MRSA 07): 0.06 µg/mL (≈ 0.116 µM) | MIC (ATCC 29213 / MRSA, strain MRSA 08): 0.03 µg/mL (≈ 0.0579 µM) | MIC (ATCC 29213 / MRSA, strain MRSA 09): 0.06 µg/mL (≈ 0.116 µM) | MIC (ATCC 29213 / MRSA, strain MRSA 10): 0.06 µg/mL (≈ 0.116 µM) | MIC (ATCC 29213 / MRSA, strain MRSA 11): 0.06 µg/mL (≈ 0.116 µM) | MIC (ATCC 29213 / MRSA, strain MRSA 12): 0.03 µg/mL (≈ 0.0579 µM) | MIC (ATCC 29213 / MRSA, strain MRSA 13): 0.06 µg/mL (≈ 0.116 µM) | MIC (ATCC 29213 / MRSA, strain MRSA 14): 0.03 µg/mL (≈ 0.0579 µM)
